We go through nine compounds from ChEMBL document CHEMBL1157213, “2-Amino-5-thiazolyl motif: a novel scaffold for designing anti-inflammatory agents of diverse structures” (Eur J Med Chem, 2008).

Data set [1] relates to Rattus norvegicus. The data set can be described thus: Antiinflammatory activity against formalin-induced chronic paw edema rat inflammatory model assessed as reduction of paw volume at 100 mg/kg, po after 5 days relative to control. The format is functional. Further details: scale not given: the % may be the effect or the level left.
The subject of data set [2] is Rattus norvegicus. The data set can be described thus: Antiinflammatory activity against formalin-induced chronic paw edema rat inflammatory model assessed as reduction of paw volume at 100 mg/kg, po after 1 day relative to control. The format is functional. On the set-up: scale not given: the % may be the effect or the level left.
The test system of data set [3] is Rattus norvegicus. The experiment in a line: Antiinflammatory activity against formalin-induced chronic paw edema rat inflammatory model assessed as reduction of paw volume at 100 mg/kg, po after 4 days relative to control. The format is functional. On the set-up: scale not given: the % may be the effect or the level left.
In data set [4] the target is T1, Prostaglandin G/H synthase 2 (Homo sapiens) (UniProt P35354).
T1 sequence (whole entry): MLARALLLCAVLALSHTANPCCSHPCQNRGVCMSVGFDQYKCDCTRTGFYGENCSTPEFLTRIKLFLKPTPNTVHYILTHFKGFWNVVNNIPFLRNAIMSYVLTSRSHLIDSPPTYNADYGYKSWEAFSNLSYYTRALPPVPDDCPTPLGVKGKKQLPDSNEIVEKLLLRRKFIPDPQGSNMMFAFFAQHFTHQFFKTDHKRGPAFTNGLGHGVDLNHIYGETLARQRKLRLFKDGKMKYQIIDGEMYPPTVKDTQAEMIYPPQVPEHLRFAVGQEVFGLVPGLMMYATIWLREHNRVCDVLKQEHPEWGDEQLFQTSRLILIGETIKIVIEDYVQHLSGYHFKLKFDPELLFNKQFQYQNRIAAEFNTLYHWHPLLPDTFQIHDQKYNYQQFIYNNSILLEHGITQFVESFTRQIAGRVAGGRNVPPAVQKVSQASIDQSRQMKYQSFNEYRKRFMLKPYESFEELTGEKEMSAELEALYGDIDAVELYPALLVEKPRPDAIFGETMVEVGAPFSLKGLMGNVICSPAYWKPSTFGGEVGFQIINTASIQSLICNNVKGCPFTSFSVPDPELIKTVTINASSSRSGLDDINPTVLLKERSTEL
The experiment in a line: Inhibition of COX2 at 10 uM.

Data set [5] deals with Rattus norvegicus. The experiment in a line: Antiinflammatory activity against carrageenan-induced acute paw edema Sprague-Dawley rat inflammatory model assessed as reduction of paw volume at 100 mg/kg, po after 3 hrs relative to control. The class given is functional. Further details: scale not given: the % may be the effect or the level left. Background: Carrageenan injected into the paw causes an acute inflammation.

Data set [6] relates to Rattus norvegicus. The data set can be described thus: Antiinflammatory activity against formalin-induced chronic paw edema rat inflammatory model assessed as reduction of paw volume at 100 mg/kg, po after 2 days relative to control. The format is functional. Further details: scale not given: the % may be the effect or the level left.
For data set [7], the target named is Prostaglandin G/H synthase 1 (Homo sapiens) (UniProt P23219). The experiment in a line: Inhibition of COX1 at 10 uM.
Prostaglandin G/H synthase 1 (Homo sapiens), sequence (P23219 whole entry): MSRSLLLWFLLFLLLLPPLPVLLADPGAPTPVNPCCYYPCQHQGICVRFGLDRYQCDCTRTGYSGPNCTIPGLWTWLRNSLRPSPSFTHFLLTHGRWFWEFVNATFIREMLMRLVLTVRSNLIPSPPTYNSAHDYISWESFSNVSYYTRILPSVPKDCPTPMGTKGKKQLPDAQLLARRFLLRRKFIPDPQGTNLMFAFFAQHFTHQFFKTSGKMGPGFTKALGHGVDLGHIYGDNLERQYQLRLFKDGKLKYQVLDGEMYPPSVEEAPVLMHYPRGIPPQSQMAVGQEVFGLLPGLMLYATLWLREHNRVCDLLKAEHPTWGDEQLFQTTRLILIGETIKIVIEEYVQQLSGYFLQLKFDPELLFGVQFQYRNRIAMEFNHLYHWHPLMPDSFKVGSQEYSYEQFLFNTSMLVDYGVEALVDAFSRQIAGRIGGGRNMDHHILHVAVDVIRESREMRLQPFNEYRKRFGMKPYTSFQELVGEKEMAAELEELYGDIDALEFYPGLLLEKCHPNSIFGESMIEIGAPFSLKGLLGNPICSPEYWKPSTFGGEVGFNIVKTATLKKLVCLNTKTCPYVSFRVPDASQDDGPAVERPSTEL
The subject of data set [8] is Rattus norvegicus. The experiment in a line: Antiinflammatory activity against formalin-induced chronic paw edema rat inflammatory model assessed as reduction of paw volume at 100 mg/kg, po after 3 days relative to control. The class given is functional. On the set-up: scale not given: the % may be the effect or the level left.
The subject of data set [9] is Rattus norvegicus. The data set can be described thus: Toxic gastric-ulcerogenic effect in Sprague-Dawley rat assessed as lesion score at 100 mg/kg, po after 7 days. The class given is toxicity, organism-based. On the set-up: dose 100 mg/kg, route oral. Conditions: in vivo, 168 h.
Data set [10] has as its system Rattus norvegicus. The data set can be described thus: Antiinflammatory activity against formalin-induced chronic paw edema rat inflammatory model assessed as reduction of paw volume at 5 mg/kg, po after 4 days relative to control. The class given is functional. Further details: scale not given: the % may be the effect or the level left.
The subject of data set [11] is Rattus norvegicus. The experiment in a line: Antiinflammatory activity against carrageenan-induced acute paw edema Sprague-Dawley rat inflammatory model assessed as reduction of paw volume at 5 mg/kg, po after 3 hrs relative to control. The class given is functional. Further details: scale not given: the % may be the effect or the level left.
Data set [12] concerns Rattus norvegicus. The data set can be described thus: Antiinflammatory activity against formalin-induced chronic paw edema rat inflammatory model assessed as reduction of paw volume at 5 mg/kg, po after 5 days relative to control. The class given is functional. Further details: scale not given: the % may be the effect or the level left.
For data set [13], the system named is Rattus norvegicus. The data set can be described thus: Antiinflammatory activity against formalin-induced chronic paw edema rat inflammatory model assessed as reduction of paw volume at 5 mg/kg, po after 3 days relative to control. The format is functional. Further details: scale not given: the % may be the effect or the level left.
In data set [14] the test system is Rattus norvegicus. The experiment in a line: Antiinflammatory activity against formalin-induced chronic paw edema rat inflammatory model assessed as reduction of paw volume at 5 mg/kg, po after 1 day relative to control. The format is functional. On the set-up: scale not given: the % may be the effect or the level left.
Data set [15] deals with Rattus norvegicus. The experiment in a line: Antiinflammatory activity against formalin-induced chronic paw edema rat inflammatory model assessed as reduction of paw volume at 5 mg/kg, po after 2 days relative to control. The class given is functional. Further details: scale not given: the % may be the effect or the level left.
For data set [16], the system named is Rattus norvegicus. The data set can be described thus: Antiinflammatory activity against carrageenan-induced acute paw edema Sprague-Dawley rat inflammatory model assessed as reduction of paw volume at 50 mg/kg, po after 3 hrs relative to control. The class given is functional. On the set-up: scale not given: the % may be the effect or the level left.
Data set [17] concerns Rattus norvegicus. The experiment in a line: Antiinflammatory activity against formalin-induced chronic paw edema rat inflammatory model assessed as reduction of paw volume at 50 mg/kg, po after 3 days relative to control. The class given is functional. Further details: scale not given: the % may be the effect or the level left.
For data set [18], the system named is Rattus norvegicus. The data set can be described thus: Antiinflammatory activity against formalin-induced chronic paw edema rat inflammatory model assessed as reduction of paw volume at 50 mg/kg, po after 4 days relative to control. The format is functional. On the set-up: scale not given: the % may be the effect or the level left.
Data set [19] relates to Rattus norvegicus. The data set can be described thus: Antiinflammatory activity against formalin-induced chronic paw edema rat inflammatory model assessed as reduction of paw volume at 50 mg/kg, po after 2 days relative to control. The format is functional. Further details: scale not given: the % may be the effect or the level left.
In data set [20] the test system is Rattus norvegicus. The data set can be described thus: Antiinflammatory activity against formalin-induced chronic paw edema rat inflammatory model assessed as reduction of paw volume at 50 mg/kg, po after 5 days relative to control. On the set-up: scale not given: the % may be the effect or the level left. The format is functional.
Data set [21] deals with Rattus norvegicus. The experiment in a line: Antiinflammatory activity against formalin-induced chronic paw edema rat inflammatory model assessed as reduction of paw volume at 50 mg/kg, po after 1 day relative to control. Further details: scale not given: the % may be the effect or the level left. The class given is functional.

On to `CCOC(=O)Nc1nc(C)c(/C(=N\O)c2ccc(S(C)(=O)=O)cc2)s1`, for which the Activity is 5% with Rattus norvegicus [1]; 29% with Rattus norvegicus [2]; 47% in the data set on Rattus norvegicus [3]; 69% in the data set with Rattus norvegicus [5]; 78% in the data set with Rattus norvegicus [6]; 72% in the data set with Rattus norvegicus [8]. Besides, the inhibition – broadly, the drop in the measured response relative to a control, in per cent – in [4] is 8.91%; in data set [7], -3.61%.
As to `COC(=O)Nc1nc(N(C)C)c(C(=O)c2ccc(S(C)(=O)=O)cc2)s1`, the Activity in the data set with Rattus norvegicus [1] worked out at 0%; in the data set with Rattus norvegicus [2], 29%; with Rattus norvegicus [3], 43%; with Rattus norvegicus [5] it was 30%; with Rattus norvegicus [6] it was 40%; in the data set with Rattus norvegicus [8], 26%. The inhibition in [4] turned out to be 15.2%; in [7], 4.13%.
In the case of `CC(=O)Oc1ccccc1C(=O)O` [ASPIRIN], the Activity in the data set with Rattus norvegicus [9] is 5 mm.
As for `C[C@@H]1C[C@H]2[C@@H]3CCC4=CC(=O)C=C[C@]4(C)[C@@]3(F)[C@@H](O)C[C@]2(C)[C@@]1(O)C(=O)CO` [DEXAMETHASONE], the Activity is given as 89% in the data set on Rattus norvegicus [10]; 85% with Rattus norvegicus [11]; 94% in the data set on Rattus norvegicus [12]; 96% with Rattus norvegicus [13]; 70% in the data set with Rattus norvegicus [14]; 92% in the data set on Rattus norvegicus [15].
With `CC(C)Cc1ccc(C(C)C(=O)O)cc1` (stereo not given) [IBUPROFEN], the Activity in the data set with Rattus norvegicus [9] came to 12 mm.
For `CS(=O)(=O)c1ccc(C2=C(c3ccccc3)C(=O)OC2)cc1` [ROFECOXIB], the Activity is 40% in the data set on Rattus norvegicus [16]; 35% in the data set with Rattus norvegicus [17]; 29% in the data set on Rattus norvegicus [18]; 32% in the data set on Rattus norvegicus [19]; 30% in the data set on Rattus norvegicus [20]; 39% in the data set on Rattus norvegicus [21].
Turning to `CS(=O)(=O)c1ccc(C(=O)c2sc(N3CCOCC3)nc2-c2ccccc2)cc1`, the Activity came to 27% in the data set with Rattus norvegicus [1]; 88% in the data set with Rattus norvegicus [2]; 38% with Rattus norvegicus [3]; 63% in the data set on Rattus norvegicus [5]; 44% with Rattus norvegicus [6]; 42% in the data set with Rattus norvegicus [8]. Also, the values for the inhibition in data set [4] and in [7] were 10.4% and -5.91%, respectively.
In the case of `CNc1nc(N(C)C)c(C(=O)/C(=N/OC)C(=O)OC)s1`, the Activity in the data set with Rattus norvegicus [1] is 66%; in the data set with Rattus norvegicus [2], 96%; with Rattus norvegicus [3] it was 72%; in the data set on Rattus norvegicus [5], 83%; in the data set on Rattus norvegicus [6] it was 90%; in the data set on Rattus norvegicus [8], 95%. The inhibition in [4] is 19.5%; in data set [7] it was -6.25%.
Take `O=C(Nc1nc(-c2ccccc2)c(C(=O)C(=O)c2sc(NC(=O)c3ccccc3)nc2-c2ccccc2)s1)c1ccccc1`: the Activity in the data set on Rattus norvegicus [1] worked out at 41%; with Rattus norvegicus [2], 88%; with Rattus norvegicus [3], 38%; with Rattus norvegicus [9], 12 mm; with Rattus norvegicus [5], 73%; in the data set on Rattus norvegicus [6], 92%. In the data set on Rattus norvegicus [8], the Activity is given as 84%. Further, the inhibition in data set [4] was 19.3%; in data set [7] it was 6.31%.
